Blank lines part the entries; values can stand above or below the molecule they belong to.
Tested on: 653999-131-R-J2-PDC complex spheroids, growth % test/control
Experiment: Anticancer human tumor 653999-131-R-J2-PDC patient-derived lung adenocarcinoma cell line growth inhibition [AhR]
Settings: for IC50: curve of first compound; for viability, T/C: stronger effect = lower value
Source text: Multicellular complex tumor spheroid response to aryl hydrocarbon receptor antagonists in combination with a variety of drugs and investigational agents in selected tumor cell lines
The current study was undertaken to assess response to aryl hydrocarbon receptor antagonists in combination with standard-of-care drugs and investigational agents in solid tumor complex spheroid models. Complex spheroids include a stromal component modeled by human endothelial cells (HUVEC) and fibroblasts modeled by human mesenchymal stem cells (MSCs). The concentration ranges selected for each drug and investigational agent were based upon clinically achievable concentrations if the clinical Cmax of the agent was known.
Compounds. The drugs and investigational agents: BAY 2416964 (NSC825713), GNF351 (NSC835774), CH-223191 (NSC835775), CPI-455 (NSC825282), aza-TdCyd (NSC777586), decitabine (NSC127716), belinostat (NSC758774), entinostat (NSC756642), pevonedistat (NSC761192), tazemetostat (NSC777109), talazoparib (NSC765396), olaparib (NSC753686), selinexor (NSC780203), nedisertib (M3814, NSC802822), bortezomib (NSC756655), venetoclax (NSC766270), doxorubicin (NSC123127), elimusertib (BAY189344, NSC800525), ceralasertib (AZD6738, NSC777638), TAK-243 (NSC785004), alisertib (NSC759677), etoposide (NSC141540), topotecan (NSC609699), eribulin (NSC707389), gemcitabine (NSC613327), carboplatin (NSC241240), cisplatin (NSC119875), and SN-38 (NSC673596) were obtained from the National Cancer Institute (NCI) Developmental Therapeutics Program Chemical Repository (32). The FDA-approved anticancer drug set is available from the Developmental Therapeutics Program at https://dtp.cancer.gov/organization/dscb/obtaining/available plates.htm. […] The stock solutions were prepared in dimethyl sulfoxide (DMSO, Sigma-Aldrich, St. Louis, MO, cat. D2650), except for the platinum compounds which were prepared in saline (Quality Biological, Gaithersburg, MD, cat. 114-055-101), at 800-fold the tested concentration and stored at -70 degrees C prior to their use. All drugs and investigational agents were tested over a range starting from a high concentration at or near the clinical Cmax and decreasing in half-log increments. If the clinical Cmax for an agent had not been determined, the highest concentration tested was 10 microM (Table 1).
Cell Culture. All cells were maintained in an incubator at 37 degrees C and 5% CO2 with 95% humidity. The PDC lines were cultured according to standard operating procedures established by the NCI PDMR (https://pdmr.cancer.gov). Briefly, all PDCs were thawed and cultured in Matrigel-coated flasks prepared with a working solution of 1X Ham's F-12 nutrient mix, without supplementation (Invitrogen, Waltham, MA, cat. 11765054), 100 U/mL penicillin-streptomycin (Invitrogen, cat. 15140122), and 2.5% Matrigel (Corning Inc., Corning, NY, cat. 354248) for the first three passages. All PDCs were cultured in complete DMEM/F-12 media containing advanced DMEM/F-12 (Invitrogen, cat. 12634028), 4.9% defined fetal bovine serum, heat inactivated (HyClone Laboratories Inc., Logan, UT, cat. SH30070.03HI), 389 ng/mL hydrocortisone (Sigma-Aldrich, cat. H4001), 9.7 ng/mL human EGF recombinant protein (Invitrogen, cat. PHG0313), 23.4 microg/mL adenine (Sigma-Aldrich, cat. A2786), 97.3 U/mL penicillin-streptomycin (Invitrogen, cat. 15140122), 1.9 mM L-glutamine (Invitrogen, cat. 25030081), and 9.7 microM Y-27632 dihydrochloride (Tocris Bioscience, Bristol, United Kingdom, cat. 1254). The PDCs were cultured in complete DMEM/F12 media without 10 microM Y-27632 dihydrochloride for at least two passages prior to the screen. The established cell lines NCI-H1341 and […] were cultured in DMEM/F-12, HEPES (Invitrogen, cat. 11330032), 5% defined fetal bovine serum (HyClone Laboratories Inc., cat. SH30070.03), ITS premix universal culture supplement [insulin (5 microg/mL), transferrin (5 microg/mL), and selenious acid (5 ng/mL)] […]

[1] = second compound 0.1 µM, first compound 0.0316 µM
[2] = second compound 0.1 µM, first compound 0.1 µM
[3] = second compound 0.1 µM, first compound 0.316 µM
[4] = second compound 0.1 µM, first compound 1 µM
[5] = second compound 0.1 µM, first compound 3.16 µM
[6] = second compound 0.1 µM, first compound 10 µM
[7] = second compound 0.316 µM, first compound 0.0316 µM
[8] = second compound 0.316 µM, first compound 0.1 µM
[9] = second compound 0.316 µM, first compound 0.316 µM
[10] = second compound 0.316 µM, first compound 1 µM
[11] = second compound 0.316 µM, first compound 3.16 µM
[12] = second compound 0.316 µM, first compound 10 µM
[13] = second compound 1 µM, first compound 0.0316 µM
[14] = second compound 1 µM, first compound 0.1 µM
[15] = second compound 1 µM, first compound 0.316 µM
[16] = second compound 1 µM, first compound 1 µM
[17] = second compound 1 µM, first compound 3.16 µM
[18] = second compound 1 µM, first compound 10 µM
[19] = second compound 3.16 µM, first compound 0.0316 µM
[20] = second compound 3.16 µM, first compound 0.1 µM
[21] = second compound 3.16 µM, first compound 0.316 µM
[22] = second compound 3.16 µM, first compound 1 µM
[23] = second compound 3.16 µM, first compound 3.16 µM
[24] = second compound 3.16 µM, first compound 10 µM
[25] = second compound 10 µM, first compound 0.0316 µM
[26] = second compound 10 µM, first compound 0.1 µM
[27] = second compound 10 µM, first compound 0.316 µM
[28] = second compound 10 µM, first compound 1 µM
[29] = second compound 10 µM, first compound 3.16 µM
[30] = second compound 10 µM, first compound 10 µM
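Also: spheroids exposed to agents for seven days.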

IC50 (second compound 0.1 µM): 0.0141 µM
IC50 (second compound 0.316 µM): 0.0134 µM
IC50 (second compound 1 µM): 0.0154 µM
IC50 (second compound 3.16 µM): 0.0157 µM
IC50 (second compound 10 µM): 0.0164 µM
SMILES: CC(C)CC(NC(=O)C(Cc1ccccc1)NC(=O)c1cnccn1)B(O)O (stereo not given) + CC(CO)NC(=O)c1cc(-c2ccc(Cl)cc2)nn(-c2cnn(C)c2)c1=O
viability, T/C (second compound 0.1 µM, first compound 0.000949 µM): 108%
viability, T/C (second compound 0.1 µM, first compound 0.003 µM): 116%
viability, T/C (second compound 0.1 µM, first compound 0.00949 µM): 65.1%
viability, T/C (second compound 0.1 µM, first compound 0.03 µM): 20.3%
viability, T/C (second compound 0.1 µM, first compound 0.0949 µM): 9.49%
viability, T/C (second compound 0.1 µM, first compound 0.3 µM): 3.53%
viability, T/C (second compound 0.316 µM, first compound 0.000949 µM): 111%
viability, T/C (second compound 0.316 µM, first compound 0.003 µM): 121%
viability, T/C (second compound 0.316 µM, first compound 0.00949 µM): 64.6%
viability, T/C (second compound 0.316 µM, first compound 0.03 µM): 17.8%
viability, T/C (second compound 0.316 µM, first compound 0.0949 µM): 11.5%
viability, T/C (second compound 0.316 µM, first compound 0.3 µM): 2.06%
viability, T/C (second compound 1 µM, first compound 0.000949 µM): 101%
viability, T/C (second compound 1 µM, first compound 0.003 µM): 122%
viability, T/C (second compound 1 µM, first compound 0.00949 µM): 73.4%
viability, T/C (second compound 1 µM, first compound 0.03 µM): 19.5%
viability, T/C (second compound 1 µM, first compound 0.0949 µM): 14.9%
viability, T/C (second compound 1 µM, first compound 0.3 µM): 4.87%
viability, T/C (second compound 3.16 µM, first compound 0.000949 µM): 121%
viability, T/C (second compound 3.16 µM, first compound 0.003 µM): 120%
viability, T/C (second compound 3.16 µM, first compound 0.00949 µM): 73.3%
viability, T/C (second compound 3.16 µM, first compound 0.03 µM): 20.1%
viability, T/C (second compound 3.16 µM, first compound 0.0949 µM): 12.1%
viability, T/C (second compound 3.16 µM, first compound 0.3 µM): 4.74%
viability, T/C (second compound 10 µM, first compound 0.000949 µM): 99.5%
viability, T/C (second compound 10 µM, first compound 0.003 µM): 117%
viability, T/C (second compound 10 µM, first compound 0.00949 µM): 74.5%
viability, T/C (second compound 10 µM, first compound 0.03 µM): 22.1%
viability, T/C (second compound 10 µM, first compound 0.0949 µM): 12.8%
viability, T/C (second compound 10 µM, first compound 0.3 µM): 2.47%

IC50 (second compound 0.1 µM): 3.83 µM
IC50 (second compound 0.316 µM): 3.53 µM
IC50 (second compound 1 µM): 2.78 µM
IC50 (second compound 3.16 µM): 3.49 µM
IC50 (second compound 10 µM): 2.66 µM
SMILES: Nc1ccccc1NC(=O)c1ccc(CNC(=O)OCc2cccnc2)cc1 + CC(CO)NC(=O)c1cc(-c2ccc(Cl)cc2)nn(-c2cnn(C)c2)c1=O
viability, T/C [1]: 86.6%
viability, T/C [2]: 93%
viability, T/C [3]: 78.1%
viability, T/C [4]: 65.4%
viability, T/C [5]: 65.2%
viability, T/C [6]: 13%
viability, T/C [7]: 87.5%
viability, T/C [8]: 85.2%
viability, T/C [9]: 83.7%
viability, T/C [10]: 68.7%
viability, T/C [11]: 55.5%
viability, T/C [12]: 15.6%
viability, T/C [13]: 88%
viability, T/C [14]: 94.3%
viability, T/C [15]: 76.1%
viability, T/C [16]: 65.5%
viability, T/C [17]: 50.7%
viability, T/C [18]: 14.2%
viability, T/C [19]: 93.3%
viability, T/C [20]: 95.6%
viability, T/C [21]: 84.5%
viability, T/C [22]: 70%
viability, T/C [23]: 57.5%
viability, T/C [24]: 12.9%
viability, T/C [25]: 91%
viability, T/C [26]: 101%
viability, T/C [27]: 76.2%
viability, T/C [28]: 67.2%
viability, T/C [29]: 50.3%
viability, T/C [30]: 6.65%

IC50 (second compound 0.1 µM): 3.73 µM
IC50 (second compound 0.316 µM): 3.66 µM
IC50 (second compound 1 µM): 4.13 µM
IC50 (second compound 3.16 µM): 3.52 µM
IC50 (second compound 10 µM): 3.64 µM
SMILES: O=C(C=Cc1cccc(S(=O)(=O)Nc2ccccc2)c1)NO + CC(CO)NC(=O)c1cc(-c2ccc(Cl)cc2)nn(-c2cnn(C)c2)c1=O
viability, T/C [1]: 102%
viability, T/C [2]: 102%
viability, T/C [3]: 100%
viability, T/C [4]: 91.8%
viability, T/C [5]: 57.3%
viability, T/C [6]: 6.62%
viability, T/C [7]: 109%
viability, T/C [8]: 117%
viability, T/C [9]: 95.9%
viability, T/C [10]: 96.3%
viability, T/C [11]: 55%
viability, T/C [12]: 7.7%
viability, T/C [13]: 108%
viability, T/C [14]: 104%
viability, T/C [15]: 114%
viability, T/C [16]: 98.5%
viability, T/C [17]: 63.4%
viability, T/C [18]: 6.59%
viability, T/C [19]: 107%
viability, T/C [20]: 114%
viability, T/C [21]: 105%
viability, T/C [22]: 90.2%
viability, T/C [23]: 54.3%
viability, T/C [24]: 10.5%
viability, T/C [25]: 107%
viability, T/C [26]: 111%
viability, T/C [27]: 105%
viability, T/C [28]: 100%
viability, T/C [29]: 56.2%
viability, T/C [30]: 4.99%

Source: PubChem BioAssay AID1919000 (Molecular Pharmacology Branch, DTP, NCI, 2023)
